In patent publication US8069687B2, “Working media for refrigeration processes” (priority 2005, dated 2011):
Read-outs that look alike come from different tables or passages of the source.

Columns and labels:
[1] = Absorption isotherm: partial pressure of 2,2,2-trifluoroethanol over sorbent material at 70° C.; assay type: physicochemical
Source text: Absorption isotherms result from the amount of a volatile component (here the refrigerant) which, at a predetermined temperature and at pressures which are generally lower than the vapor pressure of the pure refrigerant; dissolves, in an equilibrium state, in a very high-boiling or nonvolatile liquid (here the sorbent material). The pairs of values of concentration of the liquid binary mixture and the pressure of the volatile component over the liquid at a given temperature thereby give an absorption isotherm. […] In the absorption refrigerating machines considered here, a sorbent material shall absorb the refrigerant after its expansion and vaporization at a low pressure. An advantageous sorbent material, at a given pressure, takes up as much refrigerant as possible, whereupon the volume and the masses of the circulating streams minimize (or lower pressure for the same composition). This leads to the fact that the unit achieves a higher degree of efficiency and can be more advantageous with respect to its dimensions and also the amount of absorber used.
The measurements were carried out at 70° C.

[2] = Source text: If, as described in • W. Pennington; How to find accurate vapor pressures of lithium bromide water solutions; Refrig. Eng. 63 (May 1955) 57-61 or • D. A. Boryta, A. J. Maas, C. B. Grant; Vapor pressure-temperature-concentration relationship for system lithium bromide and water (40-70% lithium bromide); J. Chem. Eng. Data 20 (1975) 316-319 or • S. Iyoki, T. Uemura; Vapor pressure of the water-lithium bromide system and water-lithium bromide-zinc bromide-lithium chloride system at high temperatures; Int. […] In the prior art, the use of LiBr as absorbent and water as refrigerant is very widespread.
(§1) If, as described in • W. Pennington; How to find accurate vapor pressures of lithium bromide water solutions; Refrig. Eng. 63 (May 1955) 57-61 or • D. A. Boryta, A. J. Maas, C. B. Grant; Vapor pressure-temperature-concentration relationship for system lithium bromide and water (40-70% lithium bromide); J. Chem. Eng. Data 20 (1975) 316-319 or • S. Iyoki, T. Uemura; Vapor pressure of the water-lithium bromide system and water-lithium bromide-zinc bromide-lithium chloride system at high temperatures; Int.
as §1, with “Ethoxylated cocodiethanolammonium chloride is an ionic liquid which can be obtained under the name TEGO IL K5 from Degussa AG. If,” for “If,”
as §1, with “The ionic liquid diethylpolypropoxymethylammonium chloride can be obtained from Degussa AG under the name TEGO IL P9. If,” for “If,”
as §1

[3] = Crystallization of the sorbent in water; assay type: physicochemical; settings: T≧20° C.; concentrations greater than 65 mass % ionic liquid in water
[4] = Absorption isotherm: partial pressure of R134a over sorbent material at 20° C.; assay type: physicochemical
Source text: Absorption isotherms result from the amount of a volatile component (here the refrigerant) which, at a predetermined temperature and at pressures which are generally lower than the vapor pressure of the pure refrigerant; dissolves, in an equilibrium state, in a very high-boiling or nonvolatile liquid (here the sorbent material). The pairs of values of concentration of the liquid binary mixture and the pressure of the volatile component over the liquid at a given temperature thereby give an absorption isotherm. Such absorption isotherms of high-boiling or nonvolatile liquid substances can be measured using various dynamic or static experimental methods of which, here, by way of example reference is made to a dynamic, gravimetric method, as was presented by Sadowski G., Mokrushina L. V., Arlt, W., “Finite and infinite dilution activity coefficients in polycarbonate systems”, Fluid Phase Equilibria, 139 (1997) 391-493. In the absorption refrigerating machines considered here, a sorbent material shall absorb the refrigerant after its expansion and vaporization at a low pressure. An advantageous sorbent material, at a given pressure, takes up as much refrigerant as possible, whereupon the volume and the masses of the circulating streams minimize (or lower pressure for the same composition). This leads to the fact that the unit achieves a higher degree of efficiency and can be more advantageous with respect to its dimensions and also the amount of absorber used.
The measurements were carried out at 20° C.

[5] = in vivo; cited from earlier work
[6] = 25° C.; as described by N. Bicak; cited from earlier work
[7] = as described by N. Bicak; cited from earlier work
[8] = depending on system temperature; prior art; cited from earlier work
[9] = mass fraction of ionic liquid 0.20
[10] = mass fraction of ionic liquid 0.40
[11] = mass fraction of ionic liquid 0.60
[12] = mass fraction of ionic liquid 0.80
[13] = 20° C., 80 mass % ionic liquid and 20 mass % water
[14] = 20° C., 80 mass % ionic liquid and 20 mass % water, pure water 23.37 mbar
[15] = mass fraction of the sorbent material 0.20
[16] = mass fraction of the sorbent material 0.40
[17] = mass fraction of the sorbent material 0.60
[18] = mass fraction of the sorbent material 0.80
[19] = 40° C., 92 mass % ionic liquid and 8 mass % water

C[N+](C)(CCO)CCO.[Cl-] [Salt A, bis(2-hydroxyethyl)dimethylammonium chloride]
Partial pressure of 2,2,2-trifluoroethanol [1, 9]: 33.0 kPa | Partial pressure of 2,2,2-trifluoroethanol [1, 10]: 11.1 kPa | Partial pressure of 2,2,2-trifluoroethanol [1, 11]: 3.6 kPa | Partial pressure of 2,2,2-trifluoroethanol [1, 12]: 0.7 kPa

ethoxylated cocodiethanolammonium chloride [TEGO IL K5]
water partial pressure [2, 13]: 17 mbar | factor by which the vapor pressure of pure water was lowered [2, 14]: 1.38 | crystallization in water [3]: does not crystallize out

1,3-dimethylimidazolium dimethyl phosphate [MMIM MMPO4]
Partial pressure of R134a [4, 15]: 439 kPa | Partial pressure of R134a [4, 16]: 303 kPa | Partial pressure of R134a [4, 17]: 164 kPa | Partial pressure of R134a [4, 18]: 57 kPa | Partial pressure of 2,2,2-trifluoroethanol [1, 9]: 39.7 kPa | Partial pressure of 2,2,2-trifluoroethanol [1, 10]: 10.7 kPa | Partial pressure of 2,2,2-trifluoroethanol [1, 11]: 3.2 kPa | Partial pressure of 2,2,2-trifluoroethanol [1, 12]: 0.8 kPa

CCn1cc[n+](C)c1 [EMIM EtSO4]
Partial pressure of R134a [4, 15]: 360 kPa | LD50 [5]: > 2000 mg/kg | water partial pressure [2, 13]: 15 mbar | factor by which the vapor pressure of pure water was lowered [2, 14]: 1.56 | crystallization in water [3]: does not crystallize out

NCCO.O=CO [2-Hydroxyethylammonium formate]
vapor pressure [6]: 2.2×10^−2 torr | thermal stability, upper temperature [7]: up to 150 °C | stability to hydrolysis (Stability to hydrolysis): comparatively poor stability to hydrolysis

CC(=O)[O-].CCn1cc[n+](C)c1 [EMIM OAc]
Partial pressure of R134a [4, 15]: 360 kPa | Partial pressure of R134a [4, 16]: 175 kPa | Partial pressure of R134a [4, 17]: 66 kPa | Partial pressure of R134a [4, 18]: 17 kPa | Partial pressure of 2,2,2-trifluoroethanol [1, 9]: 24.7 kPa | Partial pressure of 2,2,2-trifluoroethanol [1, 10]: 3.7 kPa | Partial pressure of 2,2,2-trifluoroethanol [1, 11]: 0.8 kPa | Partial pressure of 2,2,2-trifluoroethanol [1, 12]: 0.2 kPa

CCCC[n+]1ccc(C)cc1.[Cl-] [MBP Cl, 1-butyl-4-methylpyridinium chloride]
Partial pressure of 2,2,2-trifluoroethanol [1, 9]: 25.2 kPa | Partial pressure of 2,2,2-trifluoroethanol [1, 10]: 5.0 kPa | Partial pressure of 2,2,2-trifluoroethanol [1, 11]: 1.3 kPa | Partial pressure of 2,2,2-trifluoroethanol [1, 12]: 0.3 kPa

CCn1cc[n+](C)c1.CS(=O)(=O)[O-] [EMIM MeSO3]
Partial pressure of 2,2,2-trifluoroethanol [1, 9]: 39.7 kPa | Partial pressure of 2,2,2-trifluoroethanol [1, 10]: 13.5 kPa | Partial pressure of 2,2,2-trifluoroethanol [1, 11]: 4.6 kPa | Partial pressure of 2,2,2-trifluoroethanol [1, 12]: 1.2 kPa | water partial pressure ([2]; 30° C., 87 mass % ionic liquid and 13 mass % water): 9 mbar | factor by which the vapor pressure of pure water was lowered ([2]; 30° C., 87 mass % ionic liquid and 13 mass % water, pure water 42.41 mbar): 4.7 | crystallization in water [3]: does not crystallize out

CS(=O)(=O)[O-].C[N+](C)(CCO)CCO [Salt B, bis(2-hydroxyethyl)dimethylammonium methylsulfonate]
Partial pressure of 2,2,2-trifluoroethanol [1, 9]: 42.0 kPa | Partial pressure of 2,2,2-trifluoroethanol [1, 12]: 1.6 kPa | water partial pressure [2, 13]: 14 mbar | pressure reduction factor compared with the vapor pressure of pure water [2, 19]: 5.3 | water partial pressure [2, 19]: approximately 13.9 mbar | crystallization in water [3]: does not crystallize out

diethylpolypropoxymethylammonium chloride [TEGO IL P9]
water partial pressure ([2]; 30° C., 94 mass % ionic liquid and 6 mass % water): 6 mbar | factor by which the vapor pressure of pure water was decreased ([2]; 30° C., 94 mass % ionic liquid and 6 mass % water, pure water 42.41 mbar): 7.07 | crystallization in water [3]: does not crystallize out

CCn1cc[n+](C)c1.[OH-] [EMIM OH]
Partial pressure of R134a [4, 15]: 345 kPa | Partial pressure of R134a [4, 16]: 112 kPa | Partial pressure of R134a [4, 17]: 20 kPa | Partial pressure of R134a [4, 18]: 3 kPa | Partial pressure of 2,2,2-trifluoroethanol [1, 9]: 5.0 kPa | Partial pressure of 2,2,2-trifluoroethanol [1, 10]: <0.1 kPa | Partial pressure of 2,2,2-trifluoroethanol [1, 11]: <0.1 kPa | Partial pressure of 2,2,2-trifluoroethanol [1, 12]: <0.1 kPa

[Br-].[Li+] [LiBr, lithium bromide]
LiBr concentration above which LiBr crystallizes in water [8]: above 60 mass %

CCn1cc[n+](C)c1.[Cl-] [EMIM Cl]
Partial pressure of R134a [4, 15]: 327 kPa | Partial pressure of R134a [4, 16]: 135 kPa | Partial pressure of R134a [4, 17]: 37 kPa | Partial pressure of R134a [4, 18]: 7 kPa | Partial pressure of 2,2,2-trifluoroethanol [1, 9]: 19.3 kPa | Partial pressure of 2,2,2-trifluoroethanol [1, 10]: 4.0 kPa | Partial pressure of 2,2,2-trifluoroethanol [1, 11]: 1.0 kPa | Partial pressure of 2,2,2-trifluoroethanol [1, 12]: 0.2 kPa

CCCCn1cc[n+](C)c1.[Br-] [BMIM Br, 1-butyl-3-methylimidazolium bromide, reference compound]
Partial pressure of 2,2,2-trifluoroethanol [1, 9]: 42.2 kPa | Partial pressure of 2,2,2-trifluoroethanol [1, 10]: 15.1 kPa | Partial pressure of 2,2,2-trifluoroethanol [1, 11]: 5.6 kPa | Partial pressure of 2,2,2-trifluoroethanol [1, 12]: 1.6 kPa

CCCCn1cc[n+](C)c1.F[B-](F)(F)F [BMIM BF4, 1-butyl-3-methylimidazolium tetrafluoroborate, reference compound]
Partial pressure of 2,2,2-trifluoroethanol [1, 9]: 70.2 kPa | Partial pressure of 2,2,2-trifluoroethanol [1, 10]: 53.0 kPa | Partial pressure of 2,2,2-trifluoroethanol [1, 11]: 35.9 kPa | Partial pressure of 2,2,2-trifluoroethanol [1, 12]: 18.0 kPa
